Measurements: patent US7390910B2, “Compounds for treating tumors” (priority 2003, dated 2008)
Marks after values point to notes of the source that are not given here. *1 amine or outer side, *2 acyl side, *3 side chain or, on linkers, in order; H or OH if unused. Where a SMILES comes first, the peptide text is derived from it. [ ]: non-standard residue; d: D form. The star is where a group is joined. NMePhe(3-Me,β,β-Me2) = CN[C@H](C(=O)O)C(C)(C)c1cccc(C)c1; X1 = C/C(=C\[C@H](C(C)C)N(C)[*:1])C(=O)[*:2]; Tle = CC(C)(C)[C@H](N)C(=O)O; NHBn = c1ccc(CN*)cc1

Columns and labels:
[1] = tested on: KBV1; test: cells; type: cell-based; settings: for inhibition at 3 µM: KB-V1, 3000 nM; for IC50: 3 days, SRB
Procedure: (§1) Cell Survival Assay: Standard Pharmacological Test Procedure. […] Compounds are incubated with cells for 3 days.

[2] = tested on: KB85; test: cells; type: cell-based; settings: for IC50: 3 days, SRB
Procedure: as §1

[3] = tested on: KB cells; test: cells; type: cell-based; settings: for IC50: 3 days, SRB
Procedure: as §1

[4] = tested on: bovine microtubule-associated protein (MAP)-rich tubulin; type: biochemical
How it was run: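 MAP-rich bovine tubulin at 1.5 mg/ml final was dissolved in cold PEM buffer (80 mM Na-PIPES pH 6.9, 1 mM MgCl2, 1 mM EGTA) with 1 mM GTP, then centrifuged at 12,000×g for 10 min at 4° C. Aliquots of 100 μl were added quickly to a low-volume 96-well plate holding duplicate 10 μl compound samples. Absorbance at 340 nm was read each minute for 60 min at 24° C.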

| Molecule | IC50 ([2]; 72 h) [µM] | IC50 ([3]; Homo sapiens, KB, 72 h) [µM] | Tubulin Polym. % inhibition at 0.3 uM [4] | IC50 ([1]; Homo sapiens, KB-V1, 72 h) [µM] | further results |
| --- | --- | --- | --- | --- | --- |
| CN[C@H](C(=O)N[C@H](C(=O)N(C)[C@H](/C=C(\C)C(=O)N1CCC[C@@H]1C(=O)N1CCC[C@@H]1C(=O)NCc1ccccc1)C(C)C)C(C)(C)C)C(C)(C)c1cccc(C)c1.O=C(O)C(F)(F)F [Example 9, 1-{(2E,4S)-2,5-Dimethyl-4-[methyl(N,β,β,3-tetramethyl-L-phenylalanyl-3-methyl-L-valyl)amino]hex-2-enoyl}-D-prolyl-N-benzyl-D-prolinamide trifluoroacetic acid salt] (H-[NMePhe(3-Me,β,β-Me2)][Tle][X1][dP][dP]-NHBn) | 0.023 | 0.0014 | 56% | – | inhibition at 3 µM ([1]; Homo sapiens): 21% |
| CN[C@H](C(=O)N[C@H](C(=O)N(C)[C@H](/C=C(\C)C(=O)N1CCC[C@H]1C(=O)N1CCC[C@H]1C(=O)NCc1ccccc1)C(C)C)C(C)(C)C)C(C)(C)c1ccc(C)c(C)c1 [Example 10, 1-{(2E,4S)-2,5-Dimethyl-4-[methyl(N,β,β,3,4-pentamethyl-L-phenylalanyl-3-methyl-L-valyl)amino]hex-2-enoyl}-L-prolyl-N-benzyl-L-prolinamide] | 0.0197 | 0.0015 | 42% | 2.14 | – |
| CN[C@@H](C(=O)N[C@H](C(=O)N(C)[C@H](/C=C(\C)C(=O)N1CCN(Cc2ccccc2)CC1)C(C)C)C(C)(C)C)C(C)(C)c1ccc(C)c(C)c1 [Example 13, N,β,β,3,4-Pentamethyl-D-phenylalanyl-N^1-[(1S,2E)-4-(4-benzylpiperazin-1-yl)-1-isopropyl-3-methyl-4-oxobut-2-enyl]-N^1,3-dimethyl-L-valinamide] | 0.352 | 0.172 | 11% | 1.77 | – |
| CN[C@H](C(=O)N[C@H](C(=O)N(C)[C@H](/C=C(\C)C(=O)N1CCN(C)CC1)C(C)C)C(C)(C)C)C(C)(C)c1cccc(C)c1.O=C(O)C(F)(F)F [Example 6, N,β,β,3-Tetramethyl-L-phenylalanyl-N^1-[(1S,2E)-1-isopropyl-3-methyl-4-(4-methylpiperazin-1-yl)-4-oxobut-2-enyl]-N^1,3-dimethyl-L-valinamide trifluoroacetic acid salt] | 0.123 | 0.064 | 64% | – | inhibition at 3 µM ([1]; Homo sapiens): 33% |
| CN[C@H](C(=O)N[C@H](C(=O)N(C)[C@H](/C=C/P(=O)(O)O)C(C)C)C(C)(C)C)C(C)(C)c1ccccc1 [Example 70, N,β,β-trimethyl-L-phenylalanyl-N^1-[(1S,2E)-1-isopropyl-3-phosphonoprop-2-enyl]N^1,3-dimethyl-L-valinamide] | – | – | 69% | – | inhibition at 3 µM ([1]; Homo sapiens): 3%; inhibition at 3 µM ([2]; 3000 nM): 0%; inhibition at 3 µM ([3]; Homo sapiens, 72 h, 3000 nM): 0% |
| CN[C@H](C(=O)N[C@H](C(=O)N(C)[C@H](/C=C(\C)C(=O)N1CCC[C@H]1[C@H](OC)[C@@H](C)C(=O)N1C(=O)O[C@@H](c2ccccc2)[C@H]1C)C(C)C)C(C)(C)C)C(C)(C)C1CCCCC1 [Example 51, 3-cyclohexyl-N-methyl-L-valyl-N^1-[(1S,2E)-1-isopropyl-4-((2S)-2-{(1R,2R)-1-meyhoxy-2-methyl-3-[(4R,5S)-4-methyl-2-oxo-5-phenyl-1,3-oxazolidin-3-yl]-3-oxopropyl}pyrrolidin-1-yl)-3-methyl-4-oxobut-2-enyl]-N^1,3-dimethyl-L-valinamide] | – | – | 82% | – | IC50 [1]: 1.77 µM; IC50 [2]: 0.061 µM; IC50 [3]: 0.022 µM |
| CN[C@H](C(=O)N[C@H](C(=O)N(C)[C@H](/C=C(\C)C(=O)N1CCC[C@H]1C(=O)OC)C(C)C)C(C)(C)C)C(C)(C)c1cccc(C)c1 [Example 21, N,β,β,3-Tetramethyl-L-phenylalanyl-N^1-{(1S,2E)-4-[(2S)-2-(methoxycarbonyl)pyrrolidin-1-yl]-1-isopropyl-3-methyl-4-oxobut-2-enyl}-N^1,3-dimethyl-L-valinamide] | 0.0062 | 0.0016 | 89% | 0.275 | – |
| CN[C@H](C(=O)N[C@H](C(=O)N(C)[C@H](/C=C(\C)C(=O)c1ccccc1)C(C)C)C(C)(C)C)C(C)(C)c1ccccc1 [Example 80, N,β,β-trimethyl-L-phenylalanyl-N-1-[(1S,2E)-1-isopropyl-3-methyl-4-oxo-4-phenylbut-2-enyl]-N-1,3-dimethyl-L-valinamide] | – | – | 70% | – | IC50 [1]: 1.8 µM; IC50 [2]: 1.33 µM; IC50 [3]: 0.725 µM |
| CN[C@H](C(=O)N[C@H](C(=O)N(C)[C@H](/C=C(\C)C(=O)N(C)OC)C(C)C)C(C)(C)C)C(C)(C)c1ccccc1 [Example 52, N,β,β-trimethyl-L-phenylalanyl-N^1-{(1S,2E)-1-isopropyl-4-[methoxy(methyl)-amino]-3-methyl-4-oxobut-2-enyl}-N^1,3-dimethyl-L-valinamide] | 0.047 | 0.011 | 86% | 0.392 | – |
| CN[C@H](C(=O)N[C@H](C(=O)N(C)[C@H](/C=C(\C)C(=O)N1CCN(C)CC1)C(C)C)C(C)(C)C)C(C)(C)c1ccc(C)c(C)c1 [Example 7, N,β,β,3,4-Pentamethyl-L-phenylalanyl-N^1-[(1S,2E)-1-isopropyl-3-methyl-4-(4-methylpiperazin-1-yl)-4-oxobut-2-enyl]-N^1,3-dimethyl-L-valinamide] | 0.068 | 0.047 | 32% | 2.19 | – |
| CN[C@H](C(=O)N[C@H](C(=O)N(C)[C@H](/C=C(\C)[C@H](O)c1ccccc1)C(C)C)C(C)(C)C)C(C)(C)c1ccccc1 [Example 76, N,β,β-trimethyl-L-phenylalanyl-N-1-[(1S,2E,4S)-4-hydroxy-1-isopropyl-3-methyl-4-phenylbut-2-enyl}-N-1,3-dimethyl-L-valinamide] | – | – | – | – | IC50 [1]: 0.19 µM; IC50 [2]: 0.022 µM; IC50 [3]: 0.016 µM; Tubulin Polym. % inhibition at 0.5 uM [4]: 63*** % |
| C/C(=C\[C@H](C(C)C)N(C)C(=O)[C@@H](NC(=O)C1N(C)CCSC1(C)C)C(C)(C)C)C(=O)O (stereo partly drawn) [Example 58, (2E,4S)-2,5-dimethyl-4-(methyl{3-methyl-N-[(2,2,4-trimethylthiomorpholin-3-yl)carbonyl]-L-valyl}amino)hex-2-enoic acid] | 0.55 | 0.427 | 89(2) % | – | inhibition at 3 µM ([1]; Homo sapiens): 15% |
| CNC(C(=O)NC(C(=O)N(C)C(C=C(C)C=C(C)C(=O)O)C(C)C)C(C)(C)C)C(C)(C)c1ccccc1 (stereo not shown) [Example 79, 6-{[3,3-Dimethyl-2-(3-methyl-2-methylamino-3-phenyl-butyrylamino)-butyryl]-methyl-amino}-2,4,7-trimethyl-octa-2,4-dienoic acid] | 0.053 | 0.027 | – | 1.58 | Tubulin Polym. % inhibition at 0.5 uM [4]: 90*** % |
| CN[C@H](C(=O)N[C@H](C(=O)N(C)[C@H](/C=C(\C)C(=O)N1CC=C[C@H]1C(=O)OC)C(C)C)C(C)(C)C)C(C)(C)c1ccccc1 [Example 47, N,β,β-trimethyl-L-phenylalanyl-N^1-{(1S,2E)-1-isopropyl-4-[(2S)-2-(methoxycarbonyl)-2,5-dihydro-1H-pyrrol-1-yl]-3-methyl-4-oxobut-2-enyl}-N^1,3-dimethyl-L-valinamide] | 0.017 | 0.0035 | 88(2) % | 0.272 | – |
| N,β,β-trimethyl-L-phenylalanyl-N^1-[(1S,2E)-1-isopropyl-4-((2S)-2-{(1R,2R)-1-methoxy-2-methyl-3-[(4R,5S)-4-methyl-2-oxo-5-phenyl-1,3-oxazolidin-3-yl]-3-oxopropyl}pyrrolidin-1-yl)-3-methyl-4-oxovalinamide [Example 32] | – | – | 99(2) % | – | IC50 [1]: 0.636 µM; IC50 [2]: 0.045 µM; IC50 [3]: 0.012 µM |
| CN[C@H](C(=O)N[C@H](C(=O)N(C)[C@H](/C=C(\C)C(=O)N1CCN(Cc2ccccc2)CC1)C(C)C)C(C)(C)C)C(C)(C)c1cccc(Cl)c1 [Example 16, 3-Chloro-N,β,β-trimethyl-L-phenylalanyl-N^1-[(1S,2E)-4-(4-benzylpiperazin-1-yl)-1-isopropyl-3-methyl-4-oxobut-2-enyl]-N^1,3-dimethyl-L-valinamide] | 0.06 | 0.039 | 62% | 0.803 | – |
| CN[C@H](C(=O)N[C@H](C(=O)N(C)[C@H](/C=C(\C)C(C)O)C(C)C)C(C)(C)C)C(C)(C)c1ccccc1 (stereo partly drawn) [Example 78, N,β,β-trimethyl-L-phenylalanyl-N-1-[(1S,2E)-4-hydroxy-1-isopropyl-3-methylpent-2-enyl]-N-1,3-dimethyl-L-valinamide] | – | – | 75% | – | IC50 [1]: 1.46 µM; IC50 [2]: 0.172 µM; IC50 [3]: 0.063 µM |
| CN[C@H](C(=O)N[C@H](C(=O)N(C)[C@H](/C=C(\C)S(=O)(=O)O)C(C)C)C(C)(C)C)C(C)(C)c1ccccc1 [Example 66, N,β,β-trimethyl-L-phenylalanyl-N^1-[(1S,2E)-1-isopropyl-3-sulfobut-2-enyl] N^1,3-dimethyl-L-valinamide] | – | – | 91% | – | KBV1 % inhibition @ 3000 nM ([1]; 3000 nM): 0%; KB85 % inhibition @ 3000 nM ([2]; 3000 nM): 0%; KB % inhibition @ 3000 nM ([3]; 3000 nM): 25% |
| CN[C@@H](C(=O)N[C@H](C(=O)N(C)[C@H](/C=C(\C)C(=O)N1CCOCC1)C(C)C)C(C)(C)C)C(C)(C)c1ccc(C)c(C)c1 [Example 4, N,β,β,3,4-Pentamethyl-D-phenylalanyl-N^1[(1S,2E)-1-isopropyl-3-methyl-4-morpholin-4-yl-4-oxobut-2-enyl]-N^1,3-dimethyl-L-valinamide] | 0.536 | 0.375 | 61% | – | inhibition at 3 µM ([1]; Homo sapiens): 42% |
